Read-outs that look alike come from different tables or passages of the source.
Target: T1, human TSHR (Homo sapiens, UniProt P16473)
T1 construct: expressed in transfected cells
Experiment: Homogeneous Time Resolved Fluorescence (HTRF) cAMP assay, TSHR cell line
Format: cell-based
Settings: for Maximum Activity compared to TSH: 100% activity = response of 30 mU/ml TSH, 0% = DMSO control, in %; for AC50: TSHR cell line, 30 minute incubation; for Emax: read-out: Maximum Activity compared to TSH, 100% activity = response of 30 mU/ml TSH, 0% = DMSO control; call rule not given here

T1 sequence (P16473 21-764): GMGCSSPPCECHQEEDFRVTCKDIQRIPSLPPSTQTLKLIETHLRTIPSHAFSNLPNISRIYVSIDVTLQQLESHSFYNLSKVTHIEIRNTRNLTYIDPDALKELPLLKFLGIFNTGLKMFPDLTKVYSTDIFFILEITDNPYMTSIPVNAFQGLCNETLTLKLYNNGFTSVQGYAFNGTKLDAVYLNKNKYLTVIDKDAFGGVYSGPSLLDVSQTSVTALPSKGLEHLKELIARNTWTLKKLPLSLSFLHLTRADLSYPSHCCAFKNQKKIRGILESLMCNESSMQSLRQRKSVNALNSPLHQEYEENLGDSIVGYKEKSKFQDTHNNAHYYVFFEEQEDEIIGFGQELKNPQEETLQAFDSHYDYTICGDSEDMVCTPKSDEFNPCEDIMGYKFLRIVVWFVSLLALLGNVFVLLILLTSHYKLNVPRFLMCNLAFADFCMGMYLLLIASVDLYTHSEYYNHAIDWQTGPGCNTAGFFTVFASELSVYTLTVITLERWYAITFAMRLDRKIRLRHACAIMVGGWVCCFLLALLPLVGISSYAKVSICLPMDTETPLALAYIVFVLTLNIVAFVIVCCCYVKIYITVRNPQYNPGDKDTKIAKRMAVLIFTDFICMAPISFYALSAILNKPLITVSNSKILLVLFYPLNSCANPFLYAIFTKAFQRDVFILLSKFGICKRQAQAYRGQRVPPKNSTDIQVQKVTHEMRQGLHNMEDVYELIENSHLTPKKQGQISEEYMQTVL

Compound	Maximum Activity compared to TSH	AC50 (HTRF cAMP, read-out: AC50)	AC50 (HTRF cAMP)	also measured
O=C(c1ccccc1O)N(Cc1ccccc1)Cc1ccccc1 [Structure 194]	27.50	31.6 µM	–	–
COc1cc(C2Nc3ccccc3C(=O)N2Cc2ccccc2)ccc1OCc1ccc(NC(C)=O)cc1 (stereo not shown) [Structure 252]	–	–	inactive	–
COc1ccc(CN(Cc2ccccc2)C(=O)c2ccno2)cc1COc1ccc(NC(C)=O)cc1 [Structure 249]	38.00	50.1 µM	–	–
COc1ccc(C(=O)N(Cc2ccco2)Cc2cccs2)c(O)c1 [Structure 112]	60.92	15.8 µM	–	–
COc1ccc(C2Nc3ccccc3C(=O)N2Cc2ccccc2Cl)cc1COc1ccc(NC(C)=O)cc1 (stereo not shown) [Structure 273]	11.00	2.51 µM	–	–
COc1ccc(C2Nc3ccccc3C(=O)N2Cc2ccccc2)cc1COc1ccc(NC(C)=O)cc1 (single isomer, unassigned) [Structure 7]	152.47	–	–	AC50 (AC50, HTRF cAMP): 8.91 µM
O=C(c1ccccc1O)N(Cc1ccco1)Cc1cccs1 [Structure 154]	–	–	inactive	–
COc1ccc(CN(Cc2ccccc2)C(=O)CN2CCN(C)CC2)cc1COc1ccc(NC(C)=O)cc1 [Structure 145]	–	–	inactive	–
COc1cc(C2Nc3ccccc3C(=O)N2Cc2ccccc2)ccc1OCc1ccc(NC(C)=O)cc1 (stereo not shown) [Structure 230]	–	–	inactive	–
COc1ccc(C2Nc3ccccc3C(=O)N2Cc2ccco2)cc1COc1ccc(NC(C)=O)cc1 (stereo not shown) [Structure 94]	160.25	25.1 µM	–	–
COc1ccc(O)c(C2Nc3ccccc3C(=O)N2Cc2ccccc2)c1 (stereo not shown) [Structure 216]	–	–	inactive	–
CC(C)c1ccc(C2C3=C(CC(c4ccco4)CC3=O)Nc3nc(C(F)(F)F)nn32)cc1 (stereo not shown) [Structure 143]	–	–	inactive	–
COc1ccc(C2Nc3ccccc3C(=O)N2Cc2ccccc2Cl)cc1COc1ccc(NC(C)=O)cc1 (stereo not shown) [Structure 231]	–	3.55 µM	–	Emax: 16%
COc1ccc(C2Nc3ccccc3C(=O)N2Cc2cccnc2)cc1COc1ccc(NC(C)=O)cc1 (stereo not shown) [Structure 99]	–	35.5 µM	–	Emax: 104%
COc1ccc(C2Nc3ccccc3C(=O)N2Cc2ccco2)cc1COc1ccc(NC(C)=O)cc1 (stereo not shown) [Structure 6]	180.81	17.8 µM	–	–
COc1ccc(C2Nc3ccccc3C(=O)N2Cc2ccco2)cc1COc1ccc(N)cc1 (stereo not shown) [Structure 237]	–	–	inactive	–
COc1ccc(C2Nc3cccc(O)c3C(=O)N2Cc2ccccc2)cc1COc1ccc(NC(C)=O)cc1 (stereo not shown) [Structure 28]	405.10	10 µM	–	–
COc1ccc(C2Nc3ccccc3C(=O)N2Cc2ccc(CNC(=O)CO)cc2)cc1COc1ccc(NC(C)=O)cc1 (stereo not shown) [Structure 107]	–	31.6 µM	–	Emax: 63.7%
COc1ccc(CN(Cc2ccccc2)C(=O)c2ccccc2)cc1COc1ccc(NC(C)=O)cc1 [Structure 31]	153.40	11.2 µM	–	–
O=C1c2ccccc2NC(c2ccccc2)N1Cc1ccco1 (stereo not shown) [Structure 255]	–	–	inactive	–
COc1ccc(C2Nc3ccccc3C(=O)N2Cc2ccco2)cc1COc1ccc(NC(C)=O)cc1 (stereo not shown) [Structure 59]	226.43	17.8 µM	–	–
COc1ccc(C2Nc3ccccc3C(=O)N2Cc2ccc(C(C)(C)C)cc2)cc1COc1ccc(NC(C)=O)cc1 (stereo not shown) [Structure 214]	–	–	inactive	–

Compound	Maximum Activity compared to TSH	AC50 (HTRF cAMP, read-out: AC50)	AC50 (HTRF cAMP)	also measured
COc1ccc(C2Nc3ccccc3C(=O)N2Cc2ccccc2)cc1COc1ccccc1OC (stereo not shown) [Structure 229]	–	8.91 µM	–	Emax: 23.5%
COc1ccc(C2Nc3ccccc3C(=O)N2Cc2ccco2)cc1COc1c(C)cccc1C (stereo not shown) [Structure 162]	–	–	inactive	–
O=C1c2ccccc2NC(c2cc(Br)c3c(c2)OCO3)N1Cc1ccco1 (stereo not shown) [Structure 251]	–	–	inactive	–
COc1ccc(C2Nc3cccc(O)c3C(=O)N2Cc2ccccc2)cc1COc1ccc(NC(C)=O)cc1 (stereo not shown) [Structure 61]	302.11	7.94 µM	–	–
COc1ccc(C2Oc3ccc(NC(C)=O)cc3C(=O)N2Cc2cccc(Cl)c2)cc1COc1ccc(NC(C)=O)cc1 (stereo not shown) [Structure 83]	–	7.08 µM	–	Emax: 79%
COc1ccc(C2Nc3ccccc3C(=O)N2Cc2ccco2)cc1COc1ccc([N+](=O)[O-])cc1 (stereo not shown) [Structure 188]	–	–	inactive	–
COc1ccc(C2Nc3ccccc3C(=O)N2CCCN(C)C)cc1COc1ccc(NC(C)=O)cc1 (stereo not shown) [Structure 186]	–	–	inactive	–
COc1ccc(-c2nc3ccccc3c(=O)n2Cc2ccc(CNC(=O)CO)cc2)cc1COc1ccc(NC(C)=O)cc1 [Structure 116]	–	35.5 µM	–	Emax: 54.6%
COc1ccc(C2Nc3ccc(NC(=O)COC(C)=O)cc3C(=O)N2Cc2ccccc2)cc1COc1ccc(NC(C)=O)cc1 (stereo not shown) [Structure 48]	106.48	8.91 µM	–	–
COc1ccc(C2Nc3ccccc3C(=O)N2Cc2ccccc2)cc1COc1ccc(NC(C)=O)cc1 (single isomer, unassigned) [Structure 51]	174.87	–	–	AC50 (AC50, HTRF cAMP): 15.8 µM
COc1ccc(C(=O)N(Cc2ccccc2)Cc2ccccc2)c(O)c1 [Structure 131]	99.01	35.5 µM	–	–
COc1ccc(C(=O)O)cc1COc1ccc(NC(C)=O)cc1 [Structure 202]	–	–	inactive	–
COc1ccc(C2Nc3ccccc3C(=O)N2Cc2ccccc2)cc1COc1cccc(C)c1 (stereo not shown) [Structure 127]	–	14.1 µM	–	Emax: 38%
COc1ccc(C2Nc3ccccc3C(=O)N2Cc2ccccc2)cc1COc1ccc(C#N)cc1 (stereo not shown) [Structure 170]	–	–	inactive	–
COc1ccc(C2Nc3ccccc3C(=O)N2C2CCCC2)cc1COc1ccc(NC(C)=O)cc1 (stereo not shown) [Structure 258]	21.50	28.2 µM	–	–
COc1ccc(C2Nc3ccccc3C(=O)N2Cc2ccccc2)cc1COc1cccc(C)c1 (stereo not shown) [Structure 200]	38.00	28.2 µM	–	–
COc1ccc(CN(Cc2ccccc2)C(=O)c2ccco2)cc1COc1ccc(NC(C)=O)cc1 [Structure 41]	122.50	15.8 µM	–	–
COc1ccc(CN(Cc2ccccc2)C(=O)COC(C)=O)cc1COc1ccc(NC(C)=O)cc1 [Structure 236]	32.00	35.5 µM	–	–
COc1ccc(C2Nc3cccc(OC)c3C(=O)N2Cc2ccccc2)cc1COc1ccc(NC(C)=O)cc1 (stereo not shown) [Structure 106]	–	17.8 µM	–	Emax: 45.4%
COc1ccc(C2Nc3ccccc3C(=O)N2Cc2ccccc2C(F)(F)F)cc1COc1ccc(NC(C)=O)cc1 (stereo not shown) [Structure 88]	–	5.62 µM	–	Emax: 30.5%
COc1ccc(CN(Cc2ccccc2)C(=O)c2ccco2)cc1COc1ccc(NC(C)=O)cc1 [Structure 96]	–	14.1 µM	–	Emax: 125%
COc1ccc(C2Nc3ccccc3C(=O)N2Cc2ccccc2)cc1COc1ccc(NC(=O)c2ccccc2)cc1 (stereo not shown) [Structure 263]	–	–	inactive	–

Compound	Maximum Activity compared to TSH	AC50 (HTRF cAMP, read-out: AC50)	AC50 (HTRF cAMP)	also measured
COc1ccc(C2Nc3ccccc3C(=O)N2CC(C)(C)C)cc1COc1ccc(NC(C)=O)cc1 (stereo not shown) [Structure 257]	–	20 µM	–	Emax: 20%
COc1ccc(C(=O)N(Cc2ccco2)Cc2cccs2)c(O)c1 [Structure 101]	128.51	28.2 µM	–	–
COc1ccc(-c2nc3ccccc3c(=O)n2Cc2ccccc2)cc1OCc1ccc(NC(C)=O)cc1 [Structure 195]	–	–	inactive	–
COc1ccc(C2Nc3ccccc3C(=O)N2Cc2ccccc2)cc1Oc1ccc(NC(C)=O)cc1 (stereo not shown) [Structure 243]	–	–	inactive	–
COc1ccc(C2Nc3ccccc3C(=O)N2CCc2ccccc2)cc1COc1ccc(NC(C)=O)cc1 (stereo not shown) [Structure 70]	53.96	10 µM	–	–
COc1ccc(C2Nc3ccccc3C(=O)N2C2CCCC2)cc1COc1ccc(NC(C)=O)cc1 (stereo not shown) [Structure 138]	–	20 µM	–	Emax: 31.5%
COc1ccc(C2Nc3ccccc3C(=O)N2Cc2ccccc2)cc1COc1ccc(NC(C)=O)cc1 (single isomer, unassigned) [Structure 24]	159.76	–	–	AC50 (AC50, HTRF cAMP): 7.08 µM
COc1ccc(C2Nc3ccccc3C(=O)N2Cc2ccccc2C)cc1COc1ccc(NC(C)=O)cc1 (stereo not shown) [Structure 201]	–	–	inactive	–
COc1cccc(-c2nc(SC)nc3sc(C(=O)NC(C)(C)C)c(N)c23)c1 [Structure 240]	–	–	inactive	–
COc1ccc(CNCc2ccccc2)cc1COc1ccc(NC(C)=O)cc1 [Structure 285]	–	–	inactive	–
COc1ccc(CN(Cc2ccccc2)C(=O)c2ccncc2)cc1COc1ccc(NC(C)=O)cc1 [Structure 69]	44.83	25.1 µM	–	–
CCC(=O)Nc1ccc(OCc2cc(C3Nc4ccccc4C(=O)N3Cc3ccccc3)ccc2OC)cc1 (stereo not shown) [Structure 177]	–	5.62 µM	–	Emax: 29%
O=C1c2ccccc2NC(c2cc(Br)c3c(c2)OCO3)N1Cc1ccco1 (stereo not shown) [Structure 148]	–	–	inactive	–
COc1ccc(C(=O)N(Cc2ccccc2)Cc2ccccc2)cc1COc1ccc(NC(C)=O)cc1 [Structure 120]	–	15.8 µM	–	Emax: 40.5%
COc1ccc(C2Nc3ccccc3C(=O)N2Cc2ccccc2)cc1COc1ccc(C#N)cc1 (stereo not shown) [Structure 250]	–	–	inactive	–
COc1ccc(C(=O)C2C(=O)C(=O)N(Cc3ccco3)C2c2cccs2)cc1 (stereo not shown) [Structure 205]	–	–	inactive	–
COc1ccc(C(=O)N(Cc2ccco2)Cc2ccco2)c(O)c1 [Structure 122]	61.90	50.1 µM	–	–
COc1cccc(-c2nc(SC)nc3sc(C(=O)NC(C)(C)C)c(N)c23)c1 [Structure 239]	30.00	17.8 µM	–	–
COc1ccc(C2Nc3ccccc3C(=O)N2Cc2ccco2)cc1COc1ccc(NC(C)=O)cc1 (stereo not shown) [Structure 89]	129.12	25.1 µM	–	–
COc1ccc(C2Nc3ccccc3C(=O)N2Cc2ccco2)cc1 (stereo not shown) [Structure 178]	–	–	inactive	–
